# Tests used:
# Assay type in all cases: in vivo, human
# [1] = tested on: premature CVD patients by MTHFR C677T genotype; assay: Blood pressure in 16-week placebo controlled riboflavin intervention trial, premature CVD patients; conditions: for Diastolic blood pressure / Systolic blood pressure: mean (SD)
# Source text: (§1) Ethical approval was granted by both the Research Ethical Committee of the University of Ulster and Altnagelvin Hospital Trust, Londonderry, Northern Ireland. Premature CVD patients, males aged 55 years and females aged 65 years and under at time of event were recruited from the cardiac department of Altnagelvin hospital. Patients were indicated by a previous myocardial infarction (MI) or angina diagnosed by ECG changes. Potential participants (n=404) were screened for MTHFR genotype on the basis of a buccal swab sample. Those with the TT genotype were identified (n=54); these were age and sex matched with a similar number of patients with the CC or CT genotypes, resulting in a total of 197 patients who were invited to participate in the current intervention study (see FIG. 1). Exclusion criteria for all subjects were history of hepatic or renal disease, consumers of B-vitamin supplements, those taking medication known to interfere with folate metabolism, at least 3 months post MI prior to blood sampling. All volunteers provided written informed consent and completed a health and medical/lifestyle questionnaire which included questions regarding family history of CVD and smoking habits.
# (§2) The study was a 16-week placebo controlled intervention trial. […] Non-fasting blood samples were collected at screening and post intervention either at Altnagelvin hospital, their workplace or their own homes.
# (§3) Blood pressure measurements were recorded as the mean of two separate measurements taken 15 minutes apart using an Omcron 705CP electronic blood pressure monitor (Medisave, Dorset, UK). Weight (kg) and height in (m), were used to calculate BMI (weight (kg)/height^2 (m)). Waist circumference (cm) was also measured. All measurements were made using Seca approved equipment (Brosch Direct, Ltd, Peterborough, UK).
# All statistical analysis was performed using the SPSS statistical package for the social sciences (version 11.0, SPSS UK Ltd., Chersey, United Kingdom). For normalisation purposes variables were log-transformed as appropriate prior to statistical analysis. One way ANOVA with Tukey's post hoc test was used to examine the differences in the baseline characteristics among the genotype groups. Categorical data were assessed using chi squared analysis. Correlation analysis was performed using bivariate Pearson correlation coefficients. […] P values<0.05 were considered significant.
# [2] = tested on: premature CVD patients by MTHFR C677T genotype; assay: Plasma homocysteine (immunoassay) in 16-week riboflavin intervention trial, premature CVD patients; conditions: mean (SD)
# Source text: as §1, §2
# One 30 ml blood sample was collected from each patient, one 9 ml EDTA tube for plasma and washed red cells, one 4 ml EDTA tube for the preparation of red blood cell lysates and the measurement of haemoglobin (HB) and packed cell volume (PCV); one 8 ml serum separation tube for serum extraction, one 5 ml serum separation tube for lipid profile analysis and one 4 ml sodium citrate tube for coagulation screening. The 9 ml EDTA was immediately wrapped in tin foil and placed on ice. Samples were centrifuged within 2 hours of sampling at 3000 rpm for 15 minutes. Plasma was removed and stored at −80° C. for plasma homocysteine and PLP analysis. The buffy layer was removed for confirmation of MTHFR genotyping and stored at −20° C. The remaining red blood cells were thrice washed with phosphate buffered saline (PBS) with the supernatant and remaining buffy layer being discarded after each wash. […] Serum was removed and stored at −80° C. for serum folate.
# Plasma homocysteine was measured by immunoassay using the Abbott Imx analyser (Leino A., 1999, “Fully automated measurement of total homocysteine in plasma and serum on the Abbott IMx analyzer.” Clin. Chem, 45, 569-71). Serum folate and red blood cell folate concentrations were determined by microbiological assay using the cryopreserved, microtitre plate method (Molloy et al, 1997, “Microbiological assay for serum, plasma, and red cell folate using cryopreserved, microtiter plate method.” Methods Enzymol, 281, 43-53). Plasma PLP was determined by reverse-phase high pressure liquid chromatography (HPLC) with fluorescence detection (Bates et al, 1999, “Plasma pyridoxal phosphate and pyridoxic acid and their relationship to plasma homocysteine in a representative sample of British men and women aged 65 years and over.” British Journal of Nutrition, 1, 191-201). Identification of the MTHFR C677T genotype was carried out using the polymerase chain reaction (PCR) amplification followed by HinF1 (Frosst et al, 1995, “A candidate genetic risk factor for vascular disease: A common mutation in methylenetetrahydrofolate reductase.” Nat Genetc, 10, 111-113). […] Coagulation screening was measured by ACI Instrumentation Laboratories. HB and PCV were measured using Sysmex XE-2100 (Sysmex, UK Ltd. Milton Keynes UK) analyser and lipid profiles were measured using Abbott Architect CI 8200 analyser (Abbott Laboratories, USA). For all assays, samples were analysed blind, in duplicate and within 1 year of collection. […]
# [3] = tested on: healthy subjects by MTHFR C677T genotype; assay: Blood pressure response to riboflavin intervention in healthy individuals; conditions: for Diastolic blood pressure / Systolic blood pressure: healthy subjects, median
# Protocol: as §3
# Measurements were taken and recorded according to the procedures described in Example 1 above. The results obtained, namely the baseline characteristics of healthy subjects pre-screened and age-matched for MTHFR genotype (n=124), are shown in Table 4.
# A placebo controlled intervention study in 81 healthy individuals was carried out.
# [4] = CC genotype, premature CVD patients, Post 16 weeks riboflavin 1.6 mg/day, n = 32
# [5] = CC genotype, premature CVD patients, Pre intervention, n = 32
# [6] = CT genotype, premature CVD patients, Post 16 weeks riboflavin 1.6 mg/day, n = 35
# [7] = CT genotype, premature CVD patients, Pre intervention, n = 35
# [8] = TT genotype, premature CVD patients, 16 weeks low-dose riboflavin
# [9] = TT genotype, premature CVD patients, Post 16 weeks riboflavin 1.6 mg/day, n = 25
# [10] = TT genotype, premature CVD patients, Pre intervention, n = 25
# [11] = estimated from the magnitude of blood pressure lowering in TT patients
# [12] = CC genotype, After riboflavin 1.6 mg/d, 16 weeks
# [13] = CC genotype, Before intervention
# [14] = CT genotype, After riboflavin 1.6 mg/d, 16 weeks
# [15] = CT genotype, Before intervention
# [16] = TT genotype, After riboflavin 1.6 mg/d, 16 weeks
# [17] = TT genotype, Before intervention
compound,measurement,setting,value
"Cc1cc2nc3c(=O)[nH]c(=O)nc-3n(C[C@H](O)[C@H](O)[C@H](O)CO)c2cc1C [Riboflavin, riboflavin]",Diastolic blood pressure,[1]; [4],80.4 (12.0) mmHg
same,Systolic blood pressure,[1]; [4],133.4 (15.3) mmHg
same,Diastolic blood pressure,[1]; [5],80.1 (8.9) mmHg
same,Systolic blood pressure,[1]; [5],134.3 (14.9) mmHg
same,effect on blood pressure (either systolic or diastolic),"[1]; CC genotype, premature CVD patients, following riboflavin administration",no significant reduction
same,Diastolic blood pressure,[1]; [6],84.2 (9.2) mmHg
same,Systolic blood pressure,[1]; [6],135.4 (15.4) mmHg
same,Diastolic blood pressure,[1]; [7],86.0 (10.8) mmHg
same,Systolic blood pressure,[1]; [7],136.2 (16.9) mmHg
same,decrease in diastolic blood pressure,[1]; [8],8 units
same,decrease in systolic blood pressure,[1]; [8],11 units
same,effect on systolic and diastolic blood pressure,[1]; [8],significant lowering
same,Diastolic blood pressure,[1]; [9],80.2 (14.2) mmHg
same,Systolic blood pressure,[1]; [9],131.6 (20.9) mmHg
same,Diastolic blood pressure,[1]; [10],88.1 (14.2) mmHg
same,Systolic blood pressure,[1]; [10],142.8 (22.1) mmHg
same,lowering of risk of heart disease estimated from meta-analyses,[1]; [11],29%
same,lowering of risk of stroke estimated from meta-analyses,[1]; [11],46%
same,Homocysteine,"[2]; CC genotype, Post 16 weeks riboflavin 1.6 mg/day, n = 32",9.8 (3.6) μmol/l
same,Homocysteine,"[2]; CC genotype, Pre intervention, n = 32",10.1 (3.9) μmol/l
same,Homocysteine,"[2]; CT genotype, Post 16 weeks riboflavin 1.6 mg/day, n = 35",10.6 (6.3) μmol/l
same,Homocysteine,"[2]; CT genotype, Pre intervention, n = 35",10.5 (3.8) μmol/l
same,Homocysteine,"[2]; TT genotype, Post 16 weeks riboflavin 1.6 mg/day, n = 25",10.0 (3.1) μmol/l
same,Homocysteine,"[2]; TT genotype, Pre intervention, n = 25",11.3 (4.4) μmol/l
same,effect on systolic or diastolic blood pressure,"[3]; healthy cohort with the TT genotype, 1.6 mg/day for 16 weeks",no significant systolic or diastolic blood pressure lowering effect
same,effect on diastolic blood pressure,"[3]; healthy individuals, CC group, 1.6 mg/day for 16 weeks",increase
same,Diastolic blood pressure,[3]; [12],86.5 mmHg
same,Systolic blood pressure,[3]; [12],143.5 mmHg
same,Diastolic blood pressure,[3]; [13],80.5 mmHg
same,Systolic blood pressure,[3]; [13],137.0 mmHg
same,Diastolic blood pressure,[3]; [14],89.0 mmHg
same,Systolic blood pressure,[3]; [14],150.0 mmHg
same,Diastolic blood pressure,[3]; [15],87.0 mmHg
same,Systolic blood pressure,[3]; [15],150.0 mmHg
same,Diastolic blood pressure,[3]; [16],88.5 mmHg
same,Systolic blood pressure,[3]; [16],145.0 mmHg
same,Diastolic blood pressure,[3]; [17],88.5 mmHg
same,Systolic blood pressure,[3]; [17],139.5 mmHg

# — patent publication US20100324019A1 (priority 2007, published 2010)
